Assay results taken from patent US20040024024A1, “Aromatic sulfone hydroxamates and their use as protease inhibitors” (priority 2001, published 2004).
pKi: −log10 of the molar value.

Legend:
[1] = target: T1, Human recombinant MMP-14 (Homo sapiens, UniProt P50281); assay: In vitro MMP inhibition, Ki determination (fluorogenic substrate II); assay type: biochemical
T1 construct: The catalytic domain enzyme was expressed in E. coli inclusion bodies, solubilized in urea; made in house
Method: (§1) Several hydroxamates and salts thereof were analyzed in in vitro assays to determine their ability to inhibit the MMP cleavage of peptide substrates. Inhibition (Ki) and IC50 constants were calculated from the assayed hydroxamate-MMP interactions.
(§2) Human recombinant MMP-1, MMP-2, MMP-9, MMP-13, and MMP-14 were used in this assay. All enzymes were prepared in Assignee's laboratories following usual laboratory procedures. Protocols for the preparation and use of these enzymes are available in the scientific literature. See, e.g., Enzyme Nomenclature (Academic Press, San Diego, Calif., 1992) (and the citations therein). See also, Frije et al., J. Biol. Chem., 26(24), 16766-73 (1994).
The MMP-14 full length cDNA was provided by Dr. Gregory Goldberg of Washington University (St. Louis, Mo.). The catalytic domain enzyme was expressed in E. coli inclusion bodies, solubilized in urea, purified on a preparative […] reverse phase HPLC column, and then refolded in the presence of zinc acetate and purified for use.
(§3) All MMPs were activated using 4-aminophenylmercuric acetate (“APMA”, Sigma Chemical, St. Louis, Mo.) or trypsin. MMP-9 also was activated using human recombinant MMP-3 (purified in Assignee's laboratory following standard cloning and purification techniques).
(§4) Two fluorogenic, methoxycoumarin-containing polypeptide substrates were used in the MMP inhibition assays:
(§5) MCA-ArgProLeuGlyLeuDpaAlaArgGluArgNH2 (II)
(§6) Here, “Dpa” is 3-(2,4-dinitrophenyl)-L-2,3-diaminopropionyl group, and “MCA” is 7-methoxycoumarin-4-yl acetyl. Substrate (I) was purchased from Baychem (Redwood City, Calif.), and substrate II was prepared Assignee's laboratory. Substrate I was used in the IC50 determination assays, while substrate II was used in the Ki determination assays. In the absence of MMP inhibitory activity, either substrate is cleaved at the Gly-Leu peptide bond. This cleavage separates the highly fluorogenic peptide from the 2,4-dinitrophenyl quencher, thus resulting in increase of fluorescent intensity.
(§7) The stock solutions of the assayed hydroxamates (or salts thereof) were prepared in 1% dimethyl sulfoxide (DMSO). These stock solutions were diluted in Buffer A (100 mM Tris-HCl, 100 mM NaCl, 10 mM CaCl2, 0.05% polyoxyethylene 23 lauryl ether, pH 7.5) to obtain solutions with different hydroxamate concentrations, i.e., assay solutions with different concentrations of the assayed MMP inhibitory compound. The experiment controls contained the same amount of Buffer A/DMSO as the assayed sample, but contained no hydroxamate (or salt thereof).
The assays from which the Ki determinations were made were performed as follows. The assayed hydroxamate samples were incubated in separate wells of untreated white polystyrene plates (Nunc Nalgene International, Rochester, N.Y.), and analyzed on a Tecan SpectraFlour Plus plate reader. The excitation wavelength was 330 nm, and the emission wavelength—420 nm. All samples (assayed hydroxamates and controls) were incubated in separate plate wells at room temperature for 1 hr in the presence of 4 μM of MMP substrate (II). In the absence of MMP inhibitory activity, substrate II was cleaved at the Gly-Leu bond resulting in an increase of relative fluorescence. Inhibition was observed as a reduced rate of this increase in relative fluorescence. The various hydroxamates were analyzed using a single low enzyme concentration with a single substrate concentration fixed at or below the Km. This protocol is a modification of method by Knight et al., FEBS Lett., 296(3), 263-266 (1992). Apparent inhibitory constants were determined by non-linear regression of reaction velocity as a function of inhibitor and enzyme concentration using Morrison's equation, as described by Kuzmic, Anal. Biochem. 286, 45-50 (2000). Modifications were made in the non-linear regression method to allow a common control reaction rate and effective enzyme concentration to be shared between all dose-response relationships on a given assay plate. […]

[2] = target: T2, Human recombinant MMP-2 (Homo sapiens, UniProt P08253); assay: as above; assay type: biochemical
T2 construct: made in house; host or cells: MMP-2-transfected p2AHT2 cells
T2 sequence (P08253 110-660): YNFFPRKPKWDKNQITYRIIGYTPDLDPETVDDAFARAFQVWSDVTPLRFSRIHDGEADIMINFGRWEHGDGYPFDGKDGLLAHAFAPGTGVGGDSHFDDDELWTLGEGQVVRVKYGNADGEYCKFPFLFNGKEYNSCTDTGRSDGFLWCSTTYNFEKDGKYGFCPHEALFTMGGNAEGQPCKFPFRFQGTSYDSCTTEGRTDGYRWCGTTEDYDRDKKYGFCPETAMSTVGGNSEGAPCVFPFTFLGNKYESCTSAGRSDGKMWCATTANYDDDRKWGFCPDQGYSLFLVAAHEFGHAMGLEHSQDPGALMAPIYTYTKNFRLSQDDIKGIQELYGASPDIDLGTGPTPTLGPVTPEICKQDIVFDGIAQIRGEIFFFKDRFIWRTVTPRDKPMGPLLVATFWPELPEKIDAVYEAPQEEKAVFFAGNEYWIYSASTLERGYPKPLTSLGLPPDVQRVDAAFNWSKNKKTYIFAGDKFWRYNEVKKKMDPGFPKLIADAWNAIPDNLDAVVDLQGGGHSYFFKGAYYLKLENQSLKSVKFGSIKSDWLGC
Method: as §1, §2
The MMP-2 proenzyme was purified by gelatin Sepharose chromatography from MMP-2-transfected p2AHT2 cells provided by Dr. Gregory Goldberg of Washington University (St. Louis, Mo.).
as §3, §4, §5, §6, §7
The assays from which the Ki determinations were made were performed as follows. The assayed hydroxamate samples were incubated in separate wells of untreated white polystyrene plates (Nunc Nalgene International, Rochester, N.Y.), and analyzed on a Tecan SpectraFlour Plus plate reader. The excitation wavelength was 330 nm, and the emission wavelength—420 nm. All samples (assayed hydroxamates and controls) were incubated in separate plate wells at room temperature for 1 hr in the presence of 4 μM of MMP substrate (II). In the absence of MMP inhibitory activity, substrate II was cleaved at the Gly-Leu bond resulting in an increase of relative fluorescence. Inhibition was observed as a reduced rate of this increase in relative fluorescence. The various hydroxamates were analyzed using a single low enzyme concentration with a single substrate concentration fixed at or below the Km. This protocol is a modification of method by Knight et al., FEBS Lett., 296(3), 263-266 (1992). Apparent inhibitory constants were determined by non-linear regression of reaction velocity as a function of inhibitor and enzyme concentration using Morrison's equation, as described by Kuzmic, Anal. Biochem. 286, 45-50 (2000). […] Since the substrate concentration was chosen to be at or below the Km, the apparent Ki's from this analysis were reported as Ki's without correction for the influence of substrate.

[3] = substrate (II) 4 μM, 1 hr room temperature, apparent Ki, values in parenthesis

Row | pKi ([1]; value in parentheses) | pKi ([2]; value in parentheses) | pKi ([1]; value in parenthesis) | pKi ([2]; value in parenthesis) | SMILES | also measured
1 | – | 9.42 | – | – | O=C(NCCOc1ccc(S(=O)(=O)C2(C(=O)NO)CCOCC2)cc1)c1cc2ccccc2[nH]1 [Example 599] | –
2 | – | – | < 5.00 | 5.63 | O=C(NO)C1(S(=O)(=O)c2ccc(OCCCc3cccc(-c4ccccc4Cl)c3)cc2)CCOCC1 [Example 162] | –
3 | – | – | < 5.00 | < 5.00 | Cc1ccc(-c2cccc(CCCOc3ccc(S(=O)(=O)C4(C(=O)NO)CCOCC4)cc3)c2)cc1C [Example 165] | –
4 | – | – | < 5.00 | 6.38 | O=C(NO)C1(S(=O)(=O)c2ccc(OCCOc3cccc(-c4ccccc4)c3)cc2)CCOCC1 [Example 157] | –
5 | – | – | < 5.00 | 6.00 | Cc1cc(NC(=O)CCCOc2ccc(S(=O)(=O)C3(C(=O)NO)CCOCC3)cc2)ccc1OC(C)C [Example 290] | –
6 | – | – | 5.41 | 7.47 | O=C(NO)C1(S(=O)(=O)c2ccc(OCCCc3cccc(Br)c3)cc2)CCOCC1 [Example 154] | –
7 | < 5.00 | 6.30 | – | – | O=C(NO)C1(S(=O)(=O)c2ccc(OCCCc3cccc(-c4ccoc4)c3)cc2)CCOCC1 [Example 637] | –
8 | – | – | < 5.00 | 5.67 | Cc1ccc(-c2cccc(CCOc3ccc(S(=O)(=O)C4(C(=O)NO)CCOCC4)cc3)c2)cc1 [Example 127] | –
9 | < 5.00 | 6.28 | – | – | O=C(NO)C1(S(=O)(=O)c2ccc(OCCCc3cccc(-c4ccccc4O)c3)cc2)CCOCC1 [Example 636] | –
10 | 5.06 | – | – | – | CCN1CCC(C(=O)NO)(S(=O)(=O)c2ccc(OCCCSc3nc4ccccc4s3)cc2)CC1 [Example 591] | –

More lines, now with the values behind:

Row | SMILES | pKi ([1]; value in parentheses) | pKi ([2]; value in parentheses) | pKi ([1]; value in parenthesis) | pKi ([2]; value in parenthesis) | also measured
11 | O=C(NO)C1(S(=O)(=O)c2ccc(OCCCc3cccc(-c4csc5ccccc45)c3)cc2)CCOCC1 [Example 631] | < 5.00 | 5.30 | – | – | –
12 | O=C(NO)C1(S(=O)(=O)c2ccc(OCCCc3nc(-c4ccc(OC(F)(F)F)cc4)no3)cc2)CCOCC1 [Example 31, tetrahydro-N-hydroxy-4-[[4-[3-[3[4-(trifluoromethoxy)phenyl]-1,2,4-oxadiazol-5-yl]propoxy]phenyl]sulfonyl]-2H-pyran-4-carboxamide] | – | – | – | – | pKi [1, 3]: < 5.00; pKi [2, 3]: 6.38
13 | O=C(NO)C1(S(=O)(=O)c2ccc(OCCCc3cccc(-c4cccc(F)c4)c3)cc2)CCOCC1 [Example 161] | – | – | – | 5.75 | –
14 | Cc1ccc(-c2cccc(CCCOc3ccc(S(=O)(=O)C4(C(=O)NO)CCOCC4)cc3)c2)s1 [Example 639] | < 5.00 | 6.30 | – | – | –
15 | COCCN1CCC(C(=O)NO)(S(=O)(=O)c2ccc(OCCCc3cccc(-c4ccc(F)cc4)c3)cc2)CC1 [Example 140] | – | – | < 5.00 | 6.15 | –
16 | O=C(NO)C1(S(=O)(=O)c2ccc(OCCCc3cccc(-c4ccc(C(F)(F)F)cc4)c3)cc2)CCOCC1 [Example 625] | < 5.00 | 5.16 | – | – | –
17 | CCc1ccccc1-c1noc(CCCOc2ccc(S(=O)(=O)C3(C(=O)NO)CCN(CCOC)CC3)cc2)n1 [Example 155] | – | – | 5.03 | 7.42 | –
18 | O=C(NO)C1(S(=O)(=O)c2ccc(OCCCc3cncc(Br)c3)cc2)CCOCC1 [Example 522] | 5.20 | 7.49 | – | – | –
19 | O=C(NO)C1(S(=O)(=O)c2ccc(OCCc3cccc(-c4ccccn4)c3)cc2)CCOCC1 [Example 40] | – | – | – | – | pKi [1, 3]: < 5.00; pKi [2, 3]: 6.67
20 | CCN1CCC(C(=O)NO)(S(=O)(=O)c2ccc(OCCCc3cccc(-c4ccccc4)c3)cc2)CC1 [Example 46] | – | – | – | – | pKi [1, 3]: < 5.00; pKi [2, 3]: 6.10
21 | O=C(NO)C1(S(=O)(=O)c2ccc(OCCCn3nnc(-c4ccc(OC(F)(F)F)cc4)n3)cc2)CCN(C2CC2)CC1 [Example 49] | – | – | – | – | pKi [1, 3]: < 5.00; pKi [2, 3]: 6.36
22 | CC(C)c1ccc(-c2cccc(CCCOc3ccc(S(=O)(=O)C4(C(=O)NO)CCOCC4)cc3)c2)cc1 [Example 160] | – | – | < 5.00 | < 5.00 | –
23 | O=C(NO)C1(S(=O)(=O)c2ccc(OCCCc3cccc(-c4ccc(F)cc4F)c3)cc2)CCOCC1 [Example 630] | < 5.00 | 5.68 | – | – | –
24 | CN(C(=O)CCCOc1ccc(S(=O)(=O)C2(C(=O)NO)CCOCC2)cc1)c1ccc(OC(F)(F)F)cc1 [Example 249] | – | – | < 5.00 | 6.48 | –
25 | O=C(NO)C1(S(=O)(=O)c2ccc(OCCCc3cncc(-c4ccccc4)c3)cc2)CCOCC1 [Example 524] | < 5.00 | 7.29 | – | – | –
26 | O=C(NO)C1(S(=O)(=O)c2ccc(OCCCc3cc(-c4ccc(F)cc4F)cs3)cc2)CCOCC1 [Example 587] | 5.38 | 6.90 | – | – | –
27 | O=C(CCCOc1ccc(S(=O)(=O)C2(C(=O)NO)CCOCC2)cc1)Nc1cccc(I)c1 [Example 570] | 5.87 | 8.00 | – | – | –
28 | O=C(NO)C1(S(=O)(=O)c2ccc(OCCCc3cccc(-c4ccncc4)c3)cc2)CCOCC1 [Example 149] | – | – | 5.60 | 7.08 | –
29 | O=C(NO)C1(S(=O)(=O)c2ccc(OCCCc3cccc(-c4ccc5c(c4)OCO5)c3)cc2)CCOCC1 [Example 628] | < 5.00 | 5.56 | – | – | –
30 | COCCN1CCC(C(=O)NO)(S(=O)(=O)c2ccc(OCCCc3nc(-c4ccc(OC(F)(F)F)cc4)no3)cc2)CC1 [Example 42] | – | – | – | – | pKi [1, 3]: < 5.00; pKi [2, 3]: 6.73
31 | O=C(NO)C1(S(=O)(=O)c2ccc(OCCCc3cccc(-c4ccc(F)cc4)c3)cc2)CCOCC1 [Example 39] | – | – | – | – | pKi [1, 3]: < 5.00; pKi [2, 3]: 5.79
32 | CC(C)c1cccc(NC(=O)CCCOc2ccc(S(=O)(=O)C3(C(=O)NO)CCOCC3)cc2)c1 [Example 182] | – | – | 5.23 | 7.46 | –
33 | COCCN1CCC(C(=O)NO)(S(=O)(=O)c2ccc(OCCCn3nnc(-c4ccc(OC(F)(F)F)cc4)n3)cc2)CC1 [Example 48] | – | – | – | – | pKi [2, 3]: 6.64
